In US12285526B2, “Nanoparticle composition with reduced contaminant and production method thereof” (Shionogi & Co., Ltd., priority 2019, dated 2025):

Test: Particle size of drug particles after bead mill grinding (Microtrac UPA 150 M)
Assay type: physicochemical
Details: slurry with PVP K-25 3 w/w % and sodium lauryl sulfate 0.25 w/w % in water, pH 6.07-10.37; zirconia beads 0.5 mm; ground 120 minutes
Protocol: Phenitoin (Shizuoka Caffein Co., Ltd.) (7.5 g, 5 w/w %) as a drug, polyvinylpyrrolidone (PVP K-25, BASF Japan Ltd.) (4.5 g, 3 w/w %) as a polymer compound, sodium lauryl sulfate (Cognis Japan Ltd.) (0.375 g, 0.25 w/w %) as a surfactant were dispersed in 137.6 g of purified water to prepare a slurry. The pH of the slurry was 3.88. The pH was adjusted by adding 1N aqueous sodium hydroxide solution to this slurry, and samples having various pH (pH 6.07, 6.68, 7.36, 8.14, 8.96, 10.37) were prepared.
Each sample (100 g) and beads (217.3 g, filling ratio 70%) were charged into Dyno-mill Research Lab (manufactured by WAB), and the grinding process by the bead mill was carried out for 120 minutes (disc peripheral speed: 4 m/s, temperature: 20° C., fluid speed: 45 g/min). The beads used for the grinding process were YTZ ball (zirconia beads manufactured by Nikkato Corporation, with diameter of 0.5 mm). As used herein, the term “filling ratio” refers to the ratio (in percentage) of the true volume to the bulk volume of the beads, and hereinafter the same is applied.
The particle size of the drug particles after the grinding process was nano-order of less than 1 μm (D50 value). The particle size was determined using Microtrac UPA 150 M (MicrotracBEL Corp.). […]

- particle size of the drug particles after the grinding process (D50 value): less than 1 μm
SMILES: O=C1NC(=O)C(c2ccccc2)(c2ccccc2)N1 [Phenitoin, Phenytoin]
